Measurements as given in paper PMC11227536, “Modulation of the Meisenheimer complex metabolism of nitro-benzothiazinones by targeted C-6 substitution” (Communications Chemistry, 2024).

Test system: RAW 264.7 cells
Assay: Hydride Meisenheimer complex (HMC) formation propensity assay, whole cell
Format: in vitro ADME, murine
Conditions: whole cell in vitro assay, relative to BTZ-043 (1)
Excerpt: As the main goal of our work, we focused on the impact of C-6 substituents on the propensity to form HMC in our recently developed whole cell in vitro assay. Following our standardized protocol, all measurements were normalized relative to BTZ-043 (1). Obtained HMC formation propensities (Table S5) were transformed into their negative decadic logarithm (pHMC) to ease data visualization and subsequent processing during chemoinformatics investigations (Fig. 5). […] In the case of esters, a plausible pattern according to the substituent size was observed. […] Similarly, dimethyl amide 7c and nitrile 9 produced a 14- and 12-fold larger ratio of HMC compared to 1, respectively. Esters 6a–e and oxazoline 7e were also more prone to HMC formation than 1, albeit to a considerably lesser extent (2.5–6-fold).
3. Hydride Meisenheimer complex formation propensity assay
The assay was performed as described previously. 6
RAW 264.7 cell cultivation […]
Samples were analyzed with a Thermo Vanquish Horizon UHPLC system (Thermo Fisher Scientific, Bremen, Germany) coupled to a Thermo Scientific QExactive Orbitrap mass spectrometer (Thermo Fisher Scientific, Bremen, Germany) by using a UPLC column (ACQUITY HSS T3, Waters, 1.8 µm particle size, 2.1 × 50 mm). […]

Structure (SMILES) | HMC formation (in words)
C[C@H]1COC2(CCN(c3nc(=O)c4cc(C(=O)O)cc([N+](=O)[O-])c4s3)CC2)O1 [Compound 8] | Traces
C[C@H]1COC2(CCN(c3nc(=O)c4cccc([N+](=O)[O-])c4s3)CC2)O1 [Compound 23] | no detectable HMC formation
